The subject of experiment [1] is crystallized SAM/SAH riboswitch (RNA1-26 + RNA2-9) (RNA, riboswitch, 5-bromocytidine at 4 of strand 1) GGUCACAACGGCUUCCUGGCGUGACC/AUUGGAGCA
As to the kind of experiment: X-ray crystallography. Conditions: crystal.

In experiment [2] the test system is G46N7CH-modified SAM/SAH riboswitch (RNA, riboswitch, 7-deazaguanosine (N7 to CH) at 44 (paper position 46)) UACCUGUCACAACGGCUUCCUGGCGUGACGAGGUGACCUCAGUGGAGCAA
As to the kind of experiment: ITC. Particulars: 100 mM K+, 10 mM Mg2+; 40 mM HEPES pH 7.0, 298 K; 40 µM RNA, 1 mM ligand stock (legend; methods: 500 µM).

Experiment [3] relates to smFRET SAM/SAH riboswitch with 3' DNA extension on anchor DNA (DNA:RNA, riboswitch, 3' 18 nt of strand 1 and all of strand 2 are DNA) GAUACCUGUCACAACGGCUUCCUGGCGUGACGAGGUGACCUCAGUGGAGCAAACCGCTGCCGTCGCTCCG/CGGAGCGACGGCAGCGGT
As to the kind of experiment: single-molecule FRET, high-FRET fraction. Particulars: 100 mM K+, 2 mM Mg2+; 40 mM HEPES pH 7.5, surface-immobilised RNA, two-state isotherm.

Experiment [4] concerns U23isoC-modified SAM/SAH riboswitch (RNA, riboswitch, isocytidine at 21 (paper position 23, replaces U)) UACCUGUCACAACGGCUUCCUGGCGUGACGAGGUGACCUCAGUGGAGCAA
The experiment is described as follows: ITC. Conditions: 100 mM K+, 10 mM Mg2+; 40 mM HEPES pH 7.0, 298 K; 40 µM RNA, 1 mM ligand stock (legend; methods: 500 µM).

Experiment [5] has as its system U23C-modified SAM/SAH riboswitch (RNA, riboswitch) UACCUGUCACAACGGCUUCCCGGCGUGACGAGGUGACCUCAGUGGAGCAA
The experiment is described as follows: ITC. Particulars: 100 mM K+, 10 mM Mg2+; 40 mM HEPES pH 7.0, 298 K; 40 µM RNA, 1 mM ligand stock (legend; methods: 500 µM).

Experiment [6] has as its system SAM/SAH riboswitch G44U (RNA, riboswitch) UACCUGUCACAACGGCUUCCUGGCGUGACGAGGUGACCUCAUUGGAGCAA
The experiment is described as follows: ITC. Conditions: 100 mM K+, 10 mM Mg2+; 40 mM HEPES-K pH 7.0, 298 K.

For experiment [7], the system named is G44O2'H-modified SAM/SAH riboswitch (RNA, riboswitch, 2'-deoxyguanosine at 42 (paper position 44)) UACCUGUCACAACGGCUUCCUGGCGUGACGAGGUGACCUCAGUGGAGCAA
The experiment is described as follows: ITC. Conditions: 100 mM K+, 10 mM Mg2+; 40 mM HEPES pH 7.0, 298 K; 40 µM RNA, 1 mM ligand stock (legend; methods: 500 µM).

The subject of experiment [8] is SK209-50 SAM/SAH riboswitch (wt) (RNA, riboswitch) UACCUGUCACAACGGCUUCCUGGCGUGACGAGGUGACCUCAGUGGAGCAA
As to the kind of experiment: ITC. Conditions: 100 mM K+, 10 mM Mg2+; 40 mM HEPES-K pH 7.0, 298 K.

Consider `CSC[C@H]1O[C@@H](n2cnc3c(N)ncnc32)[C@H](O)[C@@H]1O`, for which the binding result in experiment [1] (PDB title says AMP, ligand record MTA) is “yes”.
For `C[S+](CC[C@H](N)C(=O)O)C[C@H]1O[C@@H](n2cnc3c(N)ncnc32)[C@H](O)[C@@H]1O` (stereo partly shown), the binding entry in experiment [2] is given as “no”; in experiment [4] it was “no”; in experiment [5], “no”; in experiment [7] it was “weak”; in experiment [1] (also 6YMM in space group P312), “yes”. Also, the Kd worked out at 10 µM in experiment [3], 13 ± 3 µM in experiment [6] and 19 ± 2 µM in experiment [8].
In the case of `NCCCSC[C@H]1O[C@@H](n2cnc3c(N)ncnc32)[C@H](O)[C@@H]1O`, the Kd in experiment [8] was found to be 12 ± 1 µM. In addition, in experiment [1], the binding result is recorded as “yes”.
On to `Nc1ncnc2c1ncn2[C@@H]1O[C@H](CO)[C@@H](O)[C@H]1O`, for which, in experiment [1], the binding entry is “yes”.
`Nc1ncnc2c1ncn2[C@@H]1O[C@H](COP(=O)(O)O)[C@@H](O)[C@H]1O`: the binding entry in experiment [1] was “yes”.
As to `Nc1ncnc2c1ncn2[C@@H]1O[C@H](CSCC[C@H](N)C(=O)O)[C@@H](O)[C@H]1O`, the Kd in experiment [3] stood at 6 µM; in experiment [8] it was 20 ± 2 µM. The binding result in experiment [1] (1.7 Å, second SAH only at lattice contact) is on record as “yes”.

The Kd is the equilibrium constant for the complex coming apart. Low readings indicate a tighter complex, high ones a looser complex.
